In patent US20230295142A1, “NOVEL COMPOUNDS AS HISTONE DEACETYLASE 6 INHIBITOR, AND PHARMACEUTICAL COMPOSITION COMPRISING THE SAME” (CHONG KUN DANG PHARMACEUTICAL CORP., priority 2020, published 2023):
pIC50: −log10 of the molar value.

Assays:
HDAC1 = HDAC1 (Homo sapiens (Human), UniProt Q13547); assay: HDAC1 enzyme activity inhibition (HDAC1 Fluorimetric Drug Discovery Assay Kit); assay type: biochemical; conditions: samples at 100, 1000 and 10000 nM; 37° C. 60 minutes
Protocol: (§1) A HDAC enzyme inhibitory capacity of a test material was measured by using HDAC1 Fluorimetric Drug Discovery Assay Kit (Enzolifesciences: BML-AK511) and HDAC6 human recombinant (Calbiochem: 382180). For a HDAC1 assay, samples were treated at a concentration of 100, 1000 and 10000 nM. For a HDAC6 assay, samples were treated at a concentration of 0.1, 1, 10, 100 and 1000 nM. After the above sample treatment, a reaction was continued at 37° C. for 60 minutes, treated with a developer, and subjected to reaction at 37° C. for 30 minutes, after which fluorescence intensity (Ex 390, Em 460) was measured by using FlexStatin3 (Molecular device).

HDAC6 human recombinant = HDAC6 human recombinant (Homo sapiens (Human), UniProt Q9UBN7); assay: HDAC6 enzyme activity inhibition (fluorimetric, in vitro); assay type: biochemical; conditions: samples at 0.1, 1, 10, 100 and 1000 nM; 37° C. 60 minutes
Protocol: as §1

Chain of HDAC1 (Q13547 whole entry): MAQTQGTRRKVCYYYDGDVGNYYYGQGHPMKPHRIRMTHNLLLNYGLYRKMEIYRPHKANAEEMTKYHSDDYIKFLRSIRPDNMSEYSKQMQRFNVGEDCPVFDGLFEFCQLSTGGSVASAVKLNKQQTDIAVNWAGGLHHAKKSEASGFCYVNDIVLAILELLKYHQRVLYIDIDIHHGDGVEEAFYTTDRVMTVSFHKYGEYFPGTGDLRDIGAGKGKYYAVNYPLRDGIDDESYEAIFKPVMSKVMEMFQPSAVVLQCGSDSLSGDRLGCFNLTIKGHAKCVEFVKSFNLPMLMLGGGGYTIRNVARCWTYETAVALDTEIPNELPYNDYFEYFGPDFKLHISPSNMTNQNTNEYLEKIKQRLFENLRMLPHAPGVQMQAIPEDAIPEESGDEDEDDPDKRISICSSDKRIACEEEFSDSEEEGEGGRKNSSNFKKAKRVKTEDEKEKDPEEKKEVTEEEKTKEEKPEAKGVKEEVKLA
Chain of HDAC6 human recombinant (Q9UBN7 whole entry): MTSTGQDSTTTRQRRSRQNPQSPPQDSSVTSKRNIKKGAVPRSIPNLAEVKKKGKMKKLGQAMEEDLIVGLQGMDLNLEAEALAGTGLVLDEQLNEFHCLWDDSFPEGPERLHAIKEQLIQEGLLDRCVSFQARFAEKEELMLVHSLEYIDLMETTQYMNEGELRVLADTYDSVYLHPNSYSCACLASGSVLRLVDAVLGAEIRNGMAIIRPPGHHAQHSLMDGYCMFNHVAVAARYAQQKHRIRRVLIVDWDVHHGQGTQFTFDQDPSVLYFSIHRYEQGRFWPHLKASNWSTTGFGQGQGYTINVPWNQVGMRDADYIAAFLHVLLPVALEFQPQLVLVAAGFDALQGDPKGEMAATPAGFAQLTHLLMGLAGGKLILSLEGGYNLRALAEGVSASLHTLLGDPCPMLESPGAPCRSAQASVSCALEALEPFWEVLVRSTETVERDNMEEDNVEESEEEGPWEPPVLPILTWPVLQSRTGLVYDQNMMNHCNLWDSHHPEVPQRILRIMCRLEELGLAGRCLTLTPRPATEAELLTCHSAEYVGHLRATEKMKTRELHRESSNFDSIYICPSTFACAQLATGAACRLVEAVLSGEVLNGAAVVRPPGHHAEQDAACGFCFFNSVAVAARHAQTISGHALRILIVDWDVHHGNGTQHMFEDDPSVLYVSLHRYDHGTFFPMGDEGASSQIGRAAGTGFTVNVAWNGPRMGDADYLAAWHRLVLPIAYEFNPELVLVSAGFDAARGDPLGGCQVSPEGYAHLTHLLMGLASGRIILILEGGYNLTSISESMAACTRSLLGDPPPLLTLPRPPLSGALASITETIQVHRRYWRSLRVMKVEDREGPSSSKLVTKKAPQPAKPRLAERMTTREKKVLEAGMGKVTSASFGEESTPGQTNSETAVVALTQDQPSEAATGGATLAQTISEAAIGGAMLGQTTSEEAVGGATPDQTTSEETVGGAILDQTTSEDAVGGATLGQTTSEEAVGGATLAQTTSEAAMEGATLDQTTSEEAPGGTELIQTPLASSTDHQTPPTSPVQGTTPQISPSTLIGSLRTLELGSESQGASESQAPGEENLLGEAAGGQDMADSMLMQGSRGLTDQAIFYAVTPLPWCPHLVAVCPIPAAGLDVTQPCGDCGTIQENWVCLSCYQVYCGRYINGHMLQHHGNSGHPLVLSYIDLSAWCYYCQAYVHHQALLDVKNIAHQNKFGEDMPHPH

SMILES | pIC50 (HDAC1) | pIC50 (HDAC6 human recombinant)
CC1(C)C(=O)N(Cc2ccc(-c3nnc(C(F)F)o3)cn2)C(=O)N1c1cccc2c1CCN2 [Compound 33, 3-((5-(5-(difluoromethyl)-1,3,4-oxadiazol-2-yl)pyridin-2-yl)methyl)-1-(indolin-4-yl)-5,5-dimethylimidazolidin-2,4-dione] | < 5.00 | 7.24
CC1(C)C(=O)N(Cc2ccc(-c3nnc(C(F)F)o3)cn2)C(=O)N1c1ccc(F)cc1 [Compound 12, 3-((5-(5-(difluoromethyl)-1,3,4-oxadiazol-2-yl)pyridin-2-yl)methyl)-1-(4-fluorophenyl)-5,5-dimethylimidazolidin-2,4-dione] | < 5.00 | 7.22
CC1(C)C(=O)N(Cc2ccc(-c3nnc(C(F)F)o3)cn2)C(=O)N1c1ccc(-c2cccc(F)c2)cc1 [Compound 28, 3-((5-(5-(difluoromethyl)-1,3,4-oxadiazol-2-yl)pyridin-2-yl)methyl)-1-(3′-fluoro-[1,1′-biphenyl]-4-yl)-5,5-dimethylimidazolidin-2,4-dione] | < 5.00 | 6.77
CC1(C)C(=O)N(Cc2ccc(-c3nnc(C(F)F)o3)cn2)C(=O)N1c1ccc(F)cc1F [Compound 14, 3-((5-(5-(difluoromethyl)-1,3,4-oxadiazol-2-yl)pyridin-2-yl)methyl)-1-(2,4-difluorophenyl)-5,5-dimethylimidazolidin-2,4-dione] | < 5.00 | 7.25
CN1CCC2(CC1)C(=O)N(Cc1ccc(-c3nnc(C(F)F)o3)cn1)C(=O)N2c1cccc(F)c1 [Compound 6, 3-((5-(5-(difluoromethyl)-1,3,4-oxadiazol-2-yl)pyridin-2-yl)methyl)-1-(3-fluorophenyl)-8-methyl-1,3,8-triazaspiro[4.5]decan-2,4-dione] | < 5.00 | 6.98
CC1(C)C(=O)N(c2ccccc2)C(=O)N1Cc1ccc(-c2nnc(C(F)F)o2)cc1F [Compound 1, 1-(4-(5-(difluoromethyl)-1,3,4-oxadiazol-2-yl)-2-fluorobenzyl)-5,5-dimethyl-3-phenylimidazolidin-2,4-dione] | < 5.00 | 6.18
O=C1N(Cc2ccc(-c3nnc(C(F)F)o3)cn2)C(=O)C2(CCC2)N1c1ccccc1 [Compound 24, 7-((5-(5-(difluoromethyl)-1,3,4-oxadiazol-2-yl)pyridin-2-yl)methyl)-5-phenyl-5,7-diazaspiro[3.4]octan-6,8-dione] | < 5.00 | 7.25
CC(C)(C)OC(=O)N1CCc2c1cccc2N1C(=O)N(Cc2ccc(-c3nnc(C(F)F)o3)cn2)C(=O)C1(C)C [Compound 31, tert-butyl 4-(3-((5-(5-(difluoromethyl)-1,3,4-oxadiazol-2-yl)pyridin-2-yl)methyl)-5,5-dimethyl-2,4-dioxoimidazolidin-1-yl)indolin-1-carboxylate] | < 5.00 | 6.50
CC1(C)C(=O)N(Cc2ccc(-c3nnc(C(F)F)o3)cn2)C(=O)N1c1cccc2[nH]ccc12 [Compound 32, 3-((5-(5-(difluoromethyl)-1,3,4-oxadiazol-2-yl)pyridin-2-yl)methyl)-1-(1H-indol-4-yl)-5,5-dimethylimidazolidin-2,4-dione] | < 5.00 | 7.26
CC1(C)C(=O)N(Cc2ccc(-c3nnc(C(F)F)o3)cn2)C(=O)N1c1ccc(-c2ccccc2F)cc1 [Compound 29, 3-((5-(5-(difluoromethyl)-1,3,4-oxadiazol-2-yl)pyridin-2-yl)methyl)-1-(2′-fluoro-[1,1′-biphenyl]-4-yl)-5,5-dimethylimidazolidin-2,4-dione] | < 5.00 | 6.78
CC1(C)C(=O)N(Cc2ccc(-c3nnc(C(F)F)o3)cn2)C(=O)N1c1cc(F)cc(F)c1 [Compound 17, 3-((5-(5-(difluoromethyl)-1,3,4-oxadiazol-2-yl)pyridin-2-yl)methyl)-1-(3,5-difluorophenyl)-5,5-dimethylimidazolidin-2,4-dione] | < 5.00 | 7.16
